Assay results: PubChem BioAssay (NCI)
Where “and” joins values, the source holds several entries; their conditions need not be identical. Equal entries are not always repeated.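 Five concentrations, 48 hours, 96-well plates. At the GI50, growth is halved. TGI is the concentration that stops growth completely.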

Assays:
Assay in all cases: NCI tumour cell line growth inhibition, 48 h
[1] = system: 786-0 renal
[2] = system: BT-549 breast
[3] = system: CCRF-CEM leukemia
[4] = system: DU-145 prostate
[5] = system: HS 578T breast
[6] = system: M14 melanoma
[7] = system: MCF7 breast
[8] = system: MDA-N
[9] = system: MOLT-4 leukemia
[10] = system: PC-3 prostate
[11] = system: SNB-75 CNS
[12] = system: HOP-92 NSCLC

Compound	TGI [1] [µM]	TGI [2] [µM]	TGI [3] [µM]	TGI [4] [µM]	TGI [5] [µM]	TGI [6] [µM]	TGI [7]	TGI [8] [µM]	TGI [9]	TGI [10] [µM]	TGI [11]	TGI [12]	GI50 [2] [µM]	GI50 [4] [µM]	GI50 [12] [µM]	GI50 [7] [µM]	GI50 [9] [µM]	GI50 [3]	GI50 [10] [µM]	GI50 [11] [µM]
Brc1ccc(-c2[nH]c3ccccc3c2/C=N\Nc2ccc(-c3nc4ccccc4[nH]3)cc2)cc1	> 42	> 100	> 68.6	> 31.8	< 0.01	> 100	> 100 µM	< 0.01	22.1 µM	> 100										
c1ccc(CSC(SCc2ccccc2)c2cccc3ccccc23)cc1			> 10	> 10	> 10	> 10	> 10 µM	> 10	> 10 µM	> 10	> 10 µM									
COc1cc(/C=N/NC(=O)c2c(Cl)c(Cl)c(Cl)c(Cl)c2-c2nc3ccc(C(=O)c4ccccc4)cc3[nH]2)ccc1O	> 100	> 100	81.6	> 100	> 100	> 100	> 100 µM	52	64.1 µM	> 100	> 100 µM	> 100 µM								
CCOC(=O)C1=C(C(=O)OCC)SC2(S1)C(C(=O)OCC)=C(C(=O)OCC)Sc1c2ssc1=O	2.13	4.51	2.06	2.2	5.41	4.94	3.5 µM	4.36	2.14 µM	2.96	3.94 µM	2.81 µM								
Cc1csc2nc(-c3cccc([N+](=O)[O-])c3)c(/C=N/N=C(N)N)n12	2.91	2.49		4.28	3.45	3.1		3.04		3.08	3.16 µM	1.37 µM								
CCCCCCCCCCCCc1ccc(S(=O)(=O)O)cc1.[Cu+2]	> 100		> 100	> 100	> 100	> 100	> 100 µM	> 100	> 100 µM	> 100	> 100 µM	> 100 µM								
O=C(CSCC(=O)N/N=C\c1ccc(F)cc1F)N/N=C\c1ccc(F)cc1F	> 100		> 100	> 100	> 100	> 100	> 100 µM		> 100 µM		> 100 µM	> 100 µM								
COC(=O)c1c(O)ccc2c1c1c(n2CCc2ccc(OC)c(OC)c2)C(=O)c2ccccc2C1=O	32	27.8	45.2	29.5	37.2	31	45.2 µM	25.5	65.8 µM	35.9		43.6 µM								
COc1ccccc1C#C/C=C\C#Cc1ccccc1C#N	81.8		> 100	> 100	65.4	46.5	28 µM		38.4 µM	> 100	> 100 µM	> 100 µM								
Cc1ncc(C(=O)Nc2ccc(CN3CCN(C)CC3)c(C(F)(F)F)c2)cc1C#Cc1cnc(N)c2ccc(C#N)cc12		> 100		2.34			> 100 µM		> 100 µM			0.0783 µM	0.631	0.0157	0.0165	2.04	0.0559			
N#CC1(CCCI)CCCC1			> 100			50.4			> 100 µM		20.2 µM	35 µM								
Cc1cc(C)c2c(=O)n(CC(O)CN(Cc3ccccc3)CC(O)Cn3sc4nc(C)cc(C)c4c3=O)sc2n1 (configuration not stated)	27.7	38.3	> 100	31.7	40.4	32.9	32.1 µM	32.8	> 100 µM	30.4	28.9 µM	31.7 µM								
Cc1[nH]c(C(=O)Nc2ccc(C(=O)NCCN)cc2OC(C)C)c(Cl)c1Cl		33	5.17	3.14						3.53	3.07 µM	2.87 µM	10.6	1.69	1.3			2.13 µM	1.82	1.55
CC(=O)OC(C(=O)O)C(OC(C)=O)C(OC(C)=O)C(OC(C)=O)C(=O)O (configuration not stated)		> 100	> 100		> 100	> 100	> 100 µM	> 100	> 100 µM	> 100		> 100 µM								
O=S(=O)(c1ccccc1)C1CC(c2nc3ccccc3[nH]2)=NO1 (configuration not stated)		> 100	82.6	> 100	> 100		> 100 µM	> 100	> 100 µM	> 100	> 100 µM	> 100 µM								
C[C@]12CC[C@H]3[C@@H](CC=C4C[C@@H](O)CC[C@@]43C)[C@@H]1C/C(=C\c1ccncc1)[C@@H]2O	60.5	19.9	50.8	49.6	> 100	40.6	59 µM	54.4	61.9 µM	43	62.8 µM	27.6 µM								
N#Cc1c(-c2ccc([N+](=O)[O-])cc2)c2c([nH]c1=O)-c1ccccc1CCC2	> 100	85.9		> 100	> 100	> 100	> 100 µM	> 100	> 100 µM	> 100		48.4 µM								
c1ccc(/C(=N\Nc2nc3ccccc3[nH]2)c2ccccn2)cc1	2.57	14.5	0.891	> 100	51.7	1.89	5.45 µM	18.4	51.9 µM	37.7	3.85 µM	0.887 µM								
O=C1Nc2cccc(Cl)c2/C1=C\c1cccnc1	20.9	24.4	> 100	35.9	91.9	19.6	18.1 µM		10.2 µM	> 100	40.2 µM	68 µM								
O=C1OC(c2ccc(O)cc2)(c2ccc(O)cc2)c2ccc(Cl)c3cccc1c23 (tested in a mixture with another compound)		31.7	36.2	> 75	40.6	19.8	> 75 µM	25.7		20.6		> 75 µM								
O=C(O)c1cc2ccccc2c(N=Nc2ccc(S(=O)(=O)Nc3ccccn3)cc2)c1O	> 100	> 100	> 100	> 100	> 100	> 100	> 100 µM	> 100	> 100 µM	> 100	> 100 µM	> 100 µM								
C[n+]1c2ccccc2c(N=[N+]=[N-])c2ccccc21	> 10	> 10	> 10	> 10	> 10	> 10	> 10 µM		> 10 µM	> 10										
CC[C@@]1(O)CC(OC2CC(N3CCOCC3)C(O)C(C)O2)c2c(O)c3c(c(O)c2[C@H]1O)C(=O)c1cccc(O)c1C3=O (some centres not stated)	2.18	0.349		0.852	1.61	1.51	2.58 µM and 13.8 µM	1.04	0.369 µM and 0.128 µM	0.811	0.93 µM and 0.399 µM	0.383 µM and 0.871 µM			0.0725	0.0161		0.000479 µM and < 0.0102 µM		0.0452
C=C(CN(C)C)C(=O)c1ccccc1OC	30	31.9	14.5	> 64	56.8	28.9		34	> 20.8 µM	31.9	61 µM	32.1 µM								
